# Source: patent publication US11491117B2, “Compounds for the prevention and treatment of glucose intolerance related conditions and obesity” (SORBONNE UNIVERSITÉ, priority 2017, dated 2022)
# Columns and labels:
# [1] = biological target: dual specificity tyrosine phosphorylation regulated kinase DYRK1A (Homo sapiens, UniProt Q13627); assay: In vitro interaction analysis (DiscoverX) by determination of the EC50
# [2] = tested on: adipose tissue gene expression; assay: Quantitative RT-PCR in retroperitoneal fat pads of chronically treated mice; assay type: in vivo, mouse
# Description: Transcript abundance of key genes regulating adipose tissue biology was tested by quantitative RT-PCR in retroperitoneal fat pads of mice fed control chow diet (CHD) or high fat diet (HFD). Data were analyzed using the unpaired Mann-Whitney test. […] RNA was extracted from pancreas, adipose tissue and liver using the RNeasy RNA Mini Kit (Qiagen, Courtaboeuf, France). Reverse transcription was performed from a 20 μL reaction mixture with 500 ng RNA using M-MLV reverse transcriptase kit (ThermoFisher, Villebon, France). Quantitative RT-PCR was performed using sequence specific primers and the MESA green kit for SYBR green assays (Eurogentec, Angers, France). We used 18S and/or cyclophilin house keeping genes to normalize relative quantification of mRNA levels using the Livak and […] methods ([…], 2001).
# isolated mouse islets = assay: Incubation of isolated mouse islets: insulin release, insulin content, Ki67 proliferation; assay type: cell-based
# [3] = tested on: C57BL/6J mice fed CHD or HFD; assay: Histology and immunohistochemistry of liver and pancreas of chronically treated mice; assay type: in vivo, mouse; conditions: for islet size (immunohistochemistry) / insulin positive area: mean±SEM
# Description: Tissues were drop-fixed in 4% paraformaldehyde (Sigma-Aldrich, Saint Quentin Fallavier, France) immediately after collection and put through an automated carousel processor for dehydration, clearing, and paraffin embedding (Leica, Nanterre, France). Sections were prepared for liver (6 μm), pancreas (6 μm) and adipose tissue ([…]) and mounted on slides (DPX polymerizing mountant, Sigma-Aldrich, Saint Quentin Fallavier, France). Hematoxylin and Eosin (H&E) was used to evaluate tissue morphology. Epitope-specific antibodies were used for immunohistochemistry detection of insulin on pancreas sections (Dako, Saint Aubin, France).
# For Oil redO (ORO), livers were snap frozen in OCT (VWR, Fontenay-sous-Bois, France) and cut into 7-μm sections using a cryostat. Sections were rehydrated in PBS (Sigma-Aldrich, St Quentin, France) and incubated with an ORO staining solution (Sigma Aldrich, St Quentin, France). Slides were washed in deionized water and mounted with Vectashield mounting medium (Laboratoires Eurobio Abcys, LesUlis, France).
# For immunohistochemistry analysis, pancreas sections were quenched with 3% H2O2, washed with TBS+0.1% (v/v) Tween-20 (or 0.05% v/v Triton X-100 for nuclear epitopes), blocked with TBS+3% (w/v) BSA and incubated with diluted primary antibodies and then with HRP-conjugated secondary antibody (Bio-Rad, Marnes-la-Coquette, France). Chromogenic detection was carried out with the DAB chromogen kit (Dako, Saint Aubin, France). Nuclei were counterstained with hematoxylin. Quantitative expression of all immunostainings was performed using positive pixels algorithm (Indica Labs, Corrales, N. Mex.). For double immunostaining and immunofluorescence analyses, pancreas sections were stained for insulin as described above and co-stained with i) primary Anti-Ki67 antibody (ab15580, Abcam, Paris, France) and secondary Donkey Anti-Goat IgG H&L conjugated to Alexa Fluor® 568 (ab175704, Abcam, Paris, France) ii) primary Mouse/Rat CD31/PECAM-1 Antibody (AF3628, Minneapolis, USA) and secondary Goat anti-Rabbit IgG H&L conjugated to Alexa Fluor 488 (A-11034, ThermoFisher, Villebon, France). Results are expressed as percentage of positive pixels, within islets where indicated. The quantification method is an automated observer-independent process based on section scanning and application of publicly available algorithms. Each biological replicate represents one slide per animal mounted with at least 3 tissue sections, representing 3 technical replicates, the mean and variance of which is presented as the result per biological replicate. All images were acquired on an Axiovert 200M microscope (Zeiss, Marly-le-Roi, France).
structure (smiles),measurement,setting,value
Cc1ccc(O)cc1 [4-cresol],binding to DYRK1A,[1],does bind
same,Ucp1 expression in adipose tissue,[2]; CHD fed mice,markedly downregulated
same,"expression of Sirt1, Cav2, Hsl and Pnpla2 (Atg1) in adipose tissue",[2]; CHD fed mice,significantly stimulated
same,Ucp1 expression in adipose tissue,"[2]; HFD-fed mice, vs HFD saline and CHD 4-cresol",significantly downregulated
same,expression of Hsl and Pnpla2 in adipose tissue,"[2]; HFD-fed mice, vs saline treated fat fed mice",significantly upregulated
same,islet cell proliferation (KI67),isolated mouse islets; 10 nM,significant effect
same,increase in insulin release under basal condition,"isolated mouse islets; 10 nM, 2.8 mM glucose",+17.3%
same,stimulation of insulin secretion in response to glucose,"isolated mouse islets; 10 nM, glucose 16.6 mM, p=0.06",+25.8%
same,increase in islet insulin content,"isolated mouse islets; 10 nM, p<0.05",+33.7%
same,"insulin production, secretion and content",isolated mouse islets; 100 nM,no effect
same,islet size (immunohistochemistry),[3]; CHD fed mice,153.60±14.18
same,number of proliferative nuclei (KI67) in pancreas,[3]; CHD-fed mice,significantly increased
same,reduction in liver fat content (Oil-Red-O staining),"[3]; HFD fed mice, P=0.009, to the level of saline-treated CHD-fed controls",40.7%
same,islet size (immunohistochemistry),[3]; HFD fed mice,170.00±12.56
same,number of proliferative nuclei (KI67) in pancreas,[3]; HFD-fed mice,remained elevated
same,CD31 positive cells (pancreas vascularization),[3]; both groups fed CHD or HFD,further significant increase
same,liver fat content (Oil-Red-O staining),[3]; mice fed CHD,reduced
same,islet density,"[3]; mice fed CHD or HFD, significant only in CHD-fed mice",strong increase
same,insulin positive area,"[3]; mice fed CHD, statistically significant",185.40±22.95
same,insulin positive area,"[3]; mice fed HFD, not statistically significant",171.90±21.62
